The target of assay [1] is T1, FAAH (Homo sapiens, UniProt O00519).
T1 sequence (O00519 1-579): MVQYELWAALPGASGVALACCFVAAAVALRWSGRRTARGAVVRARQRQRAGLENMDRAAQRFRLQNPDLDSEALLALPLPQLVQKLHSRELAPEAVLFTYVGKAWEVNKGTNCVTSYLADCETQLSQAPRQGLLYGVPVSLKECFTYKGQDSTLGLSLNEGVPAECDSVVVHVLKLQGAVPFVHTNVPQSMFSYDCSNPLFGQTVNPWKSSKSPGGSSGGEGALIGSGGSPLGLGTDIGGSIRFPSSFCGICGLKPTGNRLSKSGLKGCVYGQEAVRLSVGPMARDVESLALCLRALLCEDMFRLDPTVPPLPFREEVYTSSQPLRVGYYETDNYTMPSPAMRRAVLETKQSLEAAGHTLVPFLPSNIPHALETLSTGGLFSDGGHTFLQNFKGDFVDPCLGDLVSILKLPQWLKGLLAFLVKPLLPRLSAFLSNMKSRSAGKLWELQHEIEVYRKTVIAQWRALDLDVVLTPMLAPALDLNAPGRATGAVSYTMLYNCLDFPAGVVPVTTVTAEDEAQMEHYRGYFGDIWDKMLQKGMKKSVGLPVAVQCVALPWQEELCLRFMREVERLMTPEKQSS
In words: In vitro competitive activity-based protein profiling, FAAH, human. Particulars: for inhibition at 1 µM: read-out: FAAH % inh. 1 μM (human).
Protocol: (§1) Biological Evaluation In Vitro Competitive Activity-Based Protein Profiling.
(§2) Proteomes (mouse brain membrane fraction for mouse assays; human prefrontal cortex membrane fractions for human assays) (50 mL, 1.0 mg/mL total protein concentration) were preincubated with varying concentrations of inhibitors at 37° C. After 30 min, FP-Rh (1.0 mL, 50 mM in DMSO) was added and the mixture was incubated for another 30 min at 37° C. Reactions were quenched with SDS loading buffer (15 μL—4λ) and run on SDS-PAGE.

Assay [2] addresses T2, MAGL (Homo sapiens, UniProt Q99685).
T2 sequence (Q99685 1-303): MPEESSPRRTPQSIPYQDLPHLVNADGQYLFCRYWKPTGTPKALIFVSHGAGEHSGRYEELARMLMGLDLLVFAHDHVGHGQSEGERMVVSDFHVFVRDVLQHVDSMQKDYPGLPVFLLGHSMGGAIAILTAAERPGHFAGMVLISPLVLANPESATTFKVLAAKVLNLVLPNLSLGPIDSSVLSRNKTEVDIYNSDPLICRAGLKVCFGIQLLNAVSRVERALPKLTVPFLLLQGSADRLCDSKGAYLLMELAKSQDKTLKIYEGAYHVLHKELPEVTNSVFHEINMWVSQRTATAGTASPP
Kind of assay: In vitro competitive activity-based protein profiling, MAGL, human. Particulars: read-out: MAGL % inh. 1 μM (human).

The target in assay [3] is T3, MAGL (Mus musculus, UniProt O35678).
T3 sequence (O35678 1-303): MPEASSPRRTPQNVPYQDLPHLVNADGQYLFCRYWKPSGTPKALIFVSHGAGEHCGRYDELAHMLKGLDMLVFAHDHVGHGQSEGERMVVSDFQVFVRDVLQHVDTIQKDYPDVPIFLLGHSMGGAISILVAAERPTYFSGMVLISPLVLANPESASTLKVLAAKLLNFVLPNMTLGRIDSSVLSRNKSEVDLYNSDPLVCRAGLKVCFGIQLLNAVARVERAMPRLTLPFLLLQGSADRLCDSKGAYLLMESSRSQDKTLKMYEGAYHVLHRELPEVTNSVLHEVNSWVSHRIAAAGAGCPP
In words: In vitro competitive activity-based protein profiling, MAGL, mouse. Particulars: read-out: MAGL % inh. 1 μM (mouse).

In assay [4] the target is T4, FAAH (Mus musculus, UniProt O08914).
T4 sequence (O08914 1-579): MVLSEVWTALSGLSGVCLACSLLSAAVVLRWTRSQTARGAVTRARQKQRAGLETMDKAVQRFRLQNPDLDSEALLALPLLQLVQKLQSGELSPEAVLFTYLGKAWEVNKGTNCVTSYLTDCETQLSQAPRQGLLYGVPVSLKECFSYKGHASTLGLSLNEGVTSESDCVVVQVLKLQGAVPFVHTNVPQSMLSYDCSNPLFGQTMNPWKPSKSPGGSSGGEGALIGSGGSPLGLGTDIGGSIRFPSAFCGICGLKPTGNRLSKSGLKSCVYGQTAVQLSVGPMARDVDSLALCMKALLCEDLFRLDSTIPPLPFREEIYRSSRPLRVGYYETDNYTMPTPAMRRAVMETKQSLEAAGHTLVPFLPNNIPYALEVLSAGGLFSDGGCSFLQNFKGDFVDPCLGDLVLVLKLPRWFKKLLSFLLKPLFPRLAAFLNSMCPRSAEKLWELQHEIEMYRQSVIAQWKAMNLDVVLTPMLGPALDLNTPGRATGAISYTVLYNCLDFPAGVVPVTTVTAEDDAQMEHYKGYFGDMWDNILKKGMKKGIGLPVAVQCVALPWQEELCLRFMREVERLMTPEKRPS
In words: In vitro competitive activity-based protein profiling, FAAH, mouse. The following applies: read-out: FAAH % inh. 1 μM (mouse).
Protocol: as §1, §2

The term IC50 denotes the concentration needed to halve the response being measured. High values mean a need for much substance, low ones inhibition by little substance. Take `O=C(O)c1ccn(C(=O)N2CCC3(CCN(Cc4ccc(-c5ccccc5)cc4C(F)(F)F)C3)CC2)n1` [Example 170, 1-(2-((3-(trifluoromethyl)-[1,1′-biphenyl]-4-yl)methyl)-2,8-diazaspiro[4.5]decane-8-carbonyl)-1H-pyrazole-3-carboxylic acid]: on FAAH [1], the IC50 lay in the range of 100 to 1000 nM and the inhibition at 1 µM is above 75%. In addition, the inhibition at 1 µM on MAGL [2] is above 75%.
For the compound `NC(=O)c1ccn(C(=O)N2CC3CN(Cc4cc(Cl)cc(C(F)(F)F)c4)CC3C2)n1` (stereo not drawn) [Example 201, 1-(5-(3-chloro-5-(trifluoromethyl)benzyl)octahydro-pyrrolo[3,4-c]pyrrole-2-carbonyl)-1H-pyrazole-3-carboxamide], the inhibition at 1 µM on MAGL [3] and on FAAH [4] was above 75% throughout.
Consider `O=C(O)c1ccn(C(=O)N2CCN(Cc3cccc(Oc4ccccc4)c3)CC2)n1` [Example 2, 1-(4-(3-phenoxybenzyl)piperazine-1-carbonyl)-1H-pyrazole-3-carboxylic Acid], for which the inhibition at 1 µM at MAGL [3] is above 75%; at FAAH [4], 25 to 50%.
As for `CN(Cc1ccccc1Cl)[C@H]1C[C@@H]2CN(C(=O)n3ccc(C(N)=O)n3)C[C@@H]2C1` [Example 200, 1-(trans-5-((2-chlorobenzyl) (methyl)amino)octa-hydrocyclopenta[c]pyrrole-2-carbonyl)-1H-pyrazole-3-carboxamide], the inhibition at 1 µM at MAGL [3] and on FAAH [4] was above 75% in each case.
As for `NC(=O)c1ccn(C(=O)N2CCN(Cc3cccc(-c4cncnc4)c3)CC2)n1` [Example 179, 1-(4-(3-(pyrimidin-5-yl)benzyl)piperazine-1-carbonyl)-1H-pyrazole-3-carboxamide], the inhibition at 1 µM at FAAH [1] is 50 to 75%; at MAGL [2], above 75%.
As to `O=C(O)c1ccn(C(=O)N2CCC3(CCCN3Cc3ccc(Cl)cc3N3CCCC3)CC2)n1` [Example 180, 1-(1-(4-chloro-2-(pyrrolidin-1-yl)benzyl)-1,8-diazaspiro[4.5]decane-8-carbonyl)-1H-pyrazole-3-carboxylic acid], the inhibition at 1 µM on FAAH [1] was 0 to 25%; on MAGL [2], above 75%.
Taken in the same sequence, the figures for `NC(=O)c1ccn(C(=O)N2CCC3(CCN(Cc4cc(F)cc(Cl)c4)C3)CC2)n1` [Example 178, 1-(2-(3-chloro-5-fluorobenzyl)-2,8-diazaspiro[4.5]decane-8-carbonyl)-1H-pyrazole-3-carboxamide] were above 75% and above 75%.
Taken in the same sequence, the figures for `O=C(O)c1ccn(C(=O)N2CCN(Cc3cccc(Oc4ccnnc4)c3)CC2)n1` [Example 177, 1-(4-(3-(pyridazin-4-yloxy)benzyl)pipera-zine-1-carbonyl)-1H-pyrazole-3-carboxylic acid] were 0 to 25% and 25 to 50%.
The matching figures for `NC(=O)c1ccn(C(=O)N2CCC3(CCN(Cc4cc(Cl)cc(C(F)(F)F)c4)C3)CC2)n1` [Example 196, 1-(2-(3-chloro-5-(trifluoromethyl)benzyl)-2,8-diazaspiro[4.5]decane-8-carbonyl)-1H-pyrazole-3-carboxamide]: above 75% and above 75%.
For `NC(=O)c1ccn(C(=O)N2CCC3(CCN(Cc4cc5ccc(C(F)(F)F)cc5s4)C3)CC2)n1` [Example 377, 1-(2-((6-(trifluoromethyl)benzo[b]thiophen-2-yl)methyl)-2,8-diazaspiro[4.5]decane-8-carbonyl)-1H-pyrazole-3-carboxamide], the inhibition at 1 µM on MAGL [3] and at MAGL [2] was 0 to 25% throughout.
Consider `Cc1cn(C(=O)N2CCC3(CCN(Cc4cc(Cl)cc(Cl)c4)C3)CC2)nc1C(=O)O` [Example 316, 1-(2-(3,5-dichlorobenzyl)-2,8-diazaspiro[4.5]decane-8-carbonyl)-4-methyl-1H-pyrazole-3-carboxylic acid], for which the inhibition at 1 µM at MAGL [3] and at MAGL [2] was above 75% in each case.
As to `C[C@@H]1CN(Cc2ccc(F)c(Oc3ccccc3)c2)CCN1C(=O)n1ccc(C(=O)O)n1` [Example 294, (R)-1-(4-(4-fluoro-3-phenoxybenzyl)-2-methylpiperazine-1-carbonyl)-1H-pyrazole-3-carboxylic acid], the inhibition at 1 µM at MAGL [3] and on MAGL [2] was above 75% in each case.
As to `Cc1cc(O[C@H]2C[C@@H]3CN(C(=O)n4ccc(C(=O)O)n4)C[C@@H]3C2)ccc1C(F)(F)F` [Example 254, 1-(trans-5-(3-methyl-4-(trifluoromethyl)phenoxy)octahydro-cyclopenta[c]pyrrole-2-carbonyl)-1H-pyrazole-3-carboxylic acid], the inhibition at 1 µM at MAGL [3] and on MAGL [2] was above 75% in each case.
On to `O=C(O)c1ccn(C(=O)N2C[C@H]3C[C@H](Oc4cccc(-c5ccccn5)c4)C[C@H]3C2)n1` [Example 242, 1-(trans-5-(3-(pyridin-2-yl)phenoxy)octa-hydrocyclopenta[c]pyrrole-2-carbonyl)-1H-pyrazole-3-carboxylic acid], for which the inhibition at 1 µM on MAGL [3] and on MAGL [2] was above 75% in each case.
Turning to `O=C(O)c1ccn(C(=O)N2CCC3(CCN(Cc4cccc(C(F)(F)F)c4)CC3)C2)n1` [Example 287, 1-(8-(3-(trifluoromethyl)benzyl)-2,8-diazaspiro[4.5]decane-2-carbonyl)-1H-pyrazole-3-carboxylic acid], the results for the inhibition at 1 µM at MAGL [3] and at MAGL [2] were 0 to 25% and 25 to 50%, respectively.
The matching figures for `O=C(O)c1ccn(C(=O)N2CCC3(CCN(Cc4cccc(Oc5cncnc5)c4)C3)CC2)n1` [Example 31, 1-(2-(3-(Pyrimidin-5-yloxy)benzyl)-2,8-diazaspiro[4.5]decane-8-carbonyl)-1H-pyrazole-3-carboxylic Acid]: 50 to 75% and 0 to 25%.
The matching figures for `CC(C)(O)COc1cccc(O[C@H]2C[C@@H]3CN(C(=O)n4ccc(C(N)=O)n4)C[C@@H]3C2)c1Cl` [Example 452, 1-(trans-5-(2-chloro-3-(2-hydroxy-2-methylpropoxy)phenoxy)octahydro-cyclopenta[c]pyrrole-2-carbonyl)-1H-pyrazole-3-carboxamide]: above 75% and above 75%.
Taken in the same sequence, the figures for `O=C(O)c1ccn(C(=O)N2CCC(OCc3cc(Cl)cc(C(F)(F)F)c3)CC2)n1` [Example 275, 1-(4-((3-chloro-5-(trifluoromethyl)benzyl)oxy)piper-idine-1-carbonyl)-1H-pyrazole-3-carboxylic acid] were above 75% and above 75%.
On to `O=C(O)c1ccn(C(=O)N2C[C@H]3C[C@H](Oc4ccccc4C4CCOCC4)C[C@H]3C2)n1` [Example 268, 1-(trans-5-(2-(tetrahydro-2H-pyran-4-yl)phenoxy)octa-hydrocyclopenta[c]pyrrole-2-carbonyl)-1H-pyrazole-3-carboxylic acid], for which the inhibition at 1 µM on MAGL [3] and at MAGL [2] was above 75% in each case.

Source of the values: patent US10266497B2 (ABIDE THERAPEUTICS, INC., priority 2017, dated 2019).
